{"source": "patent US12545706B2", "about": "“Pharmaceutical composition for preventing or treating Behcet's disease and rheumatoid arthritis, containing peptide or mixture thereof as active ingredient” (AJOU UNIVERSITY INDUSTRY-ACADEMIC COOPERATION FOUNDATION, priority 2019, dated 2026)", "key": {"[1]": {"system": "mouse model with collagen-induced arthritis", "test": "Severity of arthritis in mouse model with collagen-induced arthritis", "format": "in vivo", "experimental": "To prepare a mouse model with rheumatoid arthritis, subcutaneous injection (first immunization) was performed on the tail of a group of 8-week-old male ICR normal mice (average weight: 20 g) injected with 50 μg of a mixture obtained by mixing type II collagen with Complete Freund's adjuvant (CFA) and paraffin oil in the same amount. Two weeks later, the same substance was subcutaneously injected into the tail in the same manner to prepare an animal model with rheumatoid arthritis.\nIn the same manner as in Example 2, the mixture of P1, P2 and P4 peptides (P124) prepared in Example 1 was administered to the skin of mice as an external skin preparation.\nIn addition, the peptide mixture (P124) was treated as an external skin preparation once a day for 10 consecutive days, the arthritis treatment effect was checked after 5 weeks, and the results were shown in FIG. 5."}, "[2]": {"system": "CD4+CD25+ cells, CD4+CD25+FoxP3+ cells, IL-17+ cells", "test": "Flow cytometry (FACS) of cells isolated from treated arthritis mouse model", "format": "in vivo", "design": "IL-17: unit not given here"}, "[3]": {"system": "mouse animal model with Behcet's disease (HSV type 1 infected ICR mice)", "test": "Therapeutic effect on skin ulcers and skin inflammation in mouse animal model with Behcet's disease", "format": "in vivo", "conditions": "peptides administered respectively; symptoms visually checked; FIG. 1", "experimental": "Male ICR mice (4-5 weeks of age) were infected with HSV type 1 (1×10^6, 20 μL) grown in Vero cells as previously reported (S. Sohn et al., Eur J Dermatol, 8 (1): 21-23, 1998). 10 days after the first virus inoculation, the mice were infected twice by inoculating the virus again and monitored for 32 weeks. Animals were treated according to the guidelines provided by Institutional Animal Care and Use Committee (IACUC) of School of Medicine at Ajou University. The study protocol was approved by IACUC (Approval No.: AMC-2016-0010).\nSymptoms include skin ulcers, skin pustule, genital ulcers, erythema, mouth ulcers, ear inflammation, arthritis, red eyes (left and right), decreased visual acuity (left and right), weight loss, and facial swelling. Mouth ulcers, genital ulcers, skin ulcers, and eye symptoms were classified as major symptoms while the other symptoms were mild.\nMice showing one or more major symptoms with one mild symptom were considered as BD mice, the score for each symptom was calculated as 1, and the sum of the scores was used to determine the severity of BD. When symptoms disappeared or the size of the lesion was reduced by 20% or more, it was classified as symptom improved state. The disease severity score for BD was calculated based on the BD Activity Index as described in the BD Activity Form (www.behcet.ws/pdf/BehcetsDiseaseActivityForm.pdf). […]"}, "[4]": {"test": "Retention of fluorescently labeled peptide in abdominal cavity (FACS of intraperitoneal macrophages)", "format": "in vivo, mouse", "conditions": "for stability in vivo: conclusion from FIG. 9 and FIG. 10", "experimental": "After intraperitoneal injection of the fluorescently labeled peptide P4 into mice, intraperitoneal macrophages were isolated, and the frequency of fluorescently labeled macrophages was analyzed by FACS to measure the retention time of the peptides in the abdominal cavity, which was shown in FIG. 9.\nIn addition, the P1, P2, and P4 peptides were labeled with each different fluorescence, and the three types were mixed and administered to normal mice."}, "[5]": {"conditions": "FACS frequency, Table 1, in % (unit assumed)"}, "[6]": {"conditions": "intraperitoneal injection, intraperitoneal macrophages, FIG. 9"}}, "note": "Where a SMILES comes first, the peptide text is derived from it.", "data": [{"compound": "CN(Cc1cnc2nc(N)nc(N)c2n1)c1ccc(C(=O)N[C@@H](CCC(=O)O)C(=O)O)cc1", "note": "[Methotrexate]", "values": [{"measurement": "duration of the effect on severity score for arthritis", "setting": "[1]; FIG. 4, 10 weeks follow-up", "value": "effect decreased after 7 weeks"}, {"measurement": "severity score for arthritis", "setting": "[1]; external skin preparation, compared to PBS control group, followed 10 weeks, FIG. 4", "value": "reduction in the severity score for arthritis was also shown"}, {"measurement": "IL-17", "setting": "[2]; FACS frequency, Table 1", "value": "13.15 ± 1.34"}, {"measurement": "CD4 + CD25+", "setting": "[2]; [5]", "value": "3.7 ± 1.13"}, {"measurement": "CD4 + CD25 + FoxP3+", "setting": "[2]; [5]", "value": "1.45 ± 0.49"}, {"measurement": "ROR-gammaT", "setting": "[2]; FACS, Table 1", "value": "6.2 ± 0.42"}]}, {"compound": "ENICFKRFYEGNLLGKRYPRGCA [P5]", "values": [{"measurement": "skin ulcers and skin inflammation", "setting": "[3]", "value": "alleviated"}]}, {"compound": "CC[C@H](C)[C@H](NC(=O)[C@@H](N)CC(C)C)C(=O)N[C@@H](CS)C(=O)N1CCC[C@H]1C(=O)N[C@@H](CCC(=O)O)C(=O)N[C@@H](CCCCN)C(=O)N[C@@H](Cc1ccc(O)cc1)C(=O)N[C@@H](CS)C(=O)N[C@@H](CC(N)=O)C(=O)N[C@@H](CCCCN)C(=O)N[C@H](C(=O)N[C@@H](Cc1c[nH]cn1)C(=O)N[C@H](C(=O)O)[C@@H](C)O)C(C)C", "note": "[P1, LICPEKYCNKVHT] (H-LICPEKYCNKVHT-OH; N-terminus and C-terminus assumed)", "values": [{"measurement": "stability in vivo", "setting": "[4]", "value": "stably maintained"}]}, {"compound": "CC(C)[C@H](NC(=O)[C@H](CCCCN)NC(=O)[C@H](CC(N)=O)NC(=O)[C@H](CS)NC(=O)[C@@H](N)Cc1ccc(O)cc1)C(=O)N[C@@H](Cc1c[nH]cn1)C(=O)N[C@H](C(=O)N[C@@H](CS)C(=O)N[C@@H](CCCNC(=N)N)C(=O)N[C@@H](CC(N)=O)C(=O)NCC(=O)O)[C@@H](C)O", "note": "[P2, YCNKVHTCRNG] (H-YCNKVHTCRNG-OH; N-terminus and C-terminus assumed)", "values": [{"measurement": "stability in vivo", "setting": "[4]", "value": "stably maintained"}]}, {"compound": "CC[C@H](C)[C@H](NC(=O)[C@H](CC(N)=O)NC(=O)[C@H](CCC(=O)O)NC(=O)CNC(=O)[C@H](CC(N)=O)NC(=O)[C@H](CCCNC(=N)N)NC(=O)[C@H](CS)NC(=O)[C@@H](NC(=O)[C@@H](N)Cc1c[nH]cn1)[C@@H](C)O)C(=O)N[C@@H](CS)C(=O)N[C@@H](Cc1ccccc1)C(=O)O", "note": "[P4, HTCRNGENICF] (H-HTCRNGENICF-OH; N-terminus and C-terminus assumed)", "values": [{"measurement": "stability in vivo", "setting": "[4]", "value": "stably maintained"}, {"measurement": "time at which frequency of cells including the peptide was the highest", "setting": "[4]; [6]", "value": 24, "unit": "h"}, {"measurement": "time up to which frequency of cells including the peptide was maintained", "setting": "[4]; [6]", "value": "up to 72 hours"}]}]}
